Our source for the EC50, Emax and Ki values is patent US20130072427A1, “GPR 119 MODULATORS” (Pfizer Inc., priority 2009, published 2013).

The target of test [1] is T1, human GPR119 (Homo sapiens, UniProt Q8TDV5).
T1 construct: host or cells: HEK293-CRE beta-lactamase cells
T1 sequence (Q8TDV5 1-335): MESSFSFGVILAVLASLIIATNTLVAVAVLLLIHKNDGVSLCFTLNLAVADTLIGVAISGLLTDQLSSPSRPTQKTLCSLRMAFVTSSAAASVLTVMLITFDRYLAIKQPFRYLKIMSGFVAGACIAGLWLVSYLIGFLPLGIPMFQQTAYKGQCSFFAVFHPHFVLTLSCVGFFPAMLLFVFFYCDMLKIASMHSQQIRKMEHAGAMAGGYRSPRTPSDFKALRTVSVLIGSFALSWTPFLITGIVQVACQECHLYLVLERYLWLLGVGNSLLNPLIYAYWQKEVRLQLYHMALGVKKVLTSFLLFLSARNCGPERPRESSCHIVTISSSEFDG
In words: cAMP functional assay (HTRF, hGPR119 HEK-CRE beta-lactamase cells). Format: cell-based. The protocol:
GPR119 agonist activity was also determined with a cell-based assay utilizing an HTRF (Homogeneous Time-Resolved Fluorescence) cAMP detection kit (cAMP dynamic 2 Assay Kit; Cis Bio cat #62AM4PEC) that measures cAMP levels in the cell. The method is a competitive immunoassay between native cAMP produced by the cells and the cAMP labeled with the dye d2. The tracer binding is visualized by a Mab anti-cAMP labeled with Cryptate. The specific signal (i.e. energy transfer) is inversely proportional to the concentration of cAMP in either standard or sample.
Specifically, hGPR119HEK-CRE beta-lactamase cells (Invitrogen 2.5×10^7/ml; the same cell line used in the beta-lactamase assay described above) are removed from cryopreservation and diluted in growth medium (Dulbecco's modified Eagle medium high glucose (DMEM; Gibco Cat #11995-065), 1% charcoal dextran treated fetal bovine serum (CD serum; HyClone Cat #SH30068.03), 1×MEM Nonessential amino acids (Gibco Cat #15630-080) and 25 mM HEPES pH 7.0 (Gibco Cat #15630-080)). The cell concentration was adjusted to 1.5×10^5 cells/ml and 30 mls of this suspension was added to a T-175 flask and incubated at 37 degrees Celsius in a humidified environment in 5% carbon dioxide. After 16 hours (overnight), the cells were removed from the T-175 flask (by rapping the side of the flask), centrifuged at 800×g and then re-suspended in assay medium (1×HBSS+CaCl2+MgCl2 (Gibco Cat #14025-092) and 25 mM HEPES pH 7.0 (Gibco Cat #15630-080)). The cell concentration was adjusted to 6.25×10^5 cells/ml with assay medium and 8 μl of this cell suspension (5000 cells) was added to each well of a white Greiner 384-well, low-volume assay plate (VWR cat #82051-458).
Varying concentrations of each compound to be tested were diluted in assay buffer containing 3-isobutyl-1-methylxanthin (IBMX; Sigma cat #15879) and added to the assay plate wells in a volume of 2 microL (final IBMX concentration was 400 microM and final DMSO concentration was 0.58%). Following 30 minutes incubation at room temperature, 5 microL of labeled d2 cAMP and 5 microL of anti-cAMP antibody (both diluted 1:20 in cell lysis buffer; as described in the manufacturers assay protocol) were added to each well of the assay plate. The plates were then incubated at room temperature and after 60 minutes, changes in the HTRF signal were read with an Envision 2104 multilabel plate reader using excitation of 330 nm and emissions of 615 and 665 nm. Raw data were converted to nM cAMP by interpolation from a cAMP standard curve (as described in the manufacturer's assay protocol) and EC50 determinations were made from an agonist-response curves analyzed with a curve fitting program using a 4-paramter logistic dose response equation.
Background: TR-FRET usually uses a lanthanide donor and a delayed reading to cut background.

In test [2] the target is T1, human GPR119. In words: Beta-lactamase functional assay (hGPR119 HEK293-CRE beta-lactamase reporter). It is filed as cell-based. The protocol:
The assay for GPR119 agonists utilizes a cell-based (hGPR119 HEK293-CRE beta-lactamase) reporter construct where agonist activation of human GPR119 is coupled to beta-lactamase production via a cyclic AMP response element (CRE). GPR119 activity is then measured utilizing a FRET-enabled beta-lactamase substrate, CCF4-AM (Live Blazer FRET-B/G Loading kit, Invitrogen cat #K1027). Specifically, hGPR119-HEK-CRE-beta-lactamase cells (Invitrogen 2.5×10^7/mL) were removed from liquid nitrogen storage, and diluted in plating medium (Dulbecco's modified Eagle medium high glucose (DMEM; Gibco Cat #11995-065), 10% heat inactivated fetal bovine serum (HIFBS; Sigma Cat #F4135), 1×MEM Nonessential amino acids (Gibco Cat #15630-080), 25 mM HEPES pH 7.0 (Gibco Cat #15630-080), 200 nM potassium clavulanate (Sigma Cat #P3494). The cell concentration was adjusted using cell plating medium and 50 microL of this cell suspension ([…]) was added into each well of a black, clear bottom, poly-d-lysine coated 384-well plate (Greiner Bio-One cat #781946) and incubated at 37 degrees Celsius in a humidified environment containing 5% carbon dioxide. After 4 hours the plating medium was removed and replaced with 40 microL of assay medium (Assay medium is plating medium without potassium clavulanate and HIFBS). Varying concentrations of each compound to be tested was then added in a volume of 10 microL (final DMSO≦0.5%) and the cells were incubated for 16 hours at 37 degrees Celsius in a humidified environment containing 5% carbon dioxide. Plates were removed from the incubator and allowed to equilibrate to room temperature for approximately 15 minutes. 10 microL of 6×CCF4/AM working dye solution (prepared according to instructions in the Live Blazer FRET-B/G Loading kit, Invitrogen cat #K1027) was added per well and incubated at room temperature for 2 hours in the dark. Fluorescence was measured on an EnVision fluorimetric plate reader, excitation 405 nm, emission 460 nm/535 nm. EC50 determinations were made from agonist-response curves analyzed with a curve fitting program using a 4-parameter logistic dose-response equation.

Test [3] has as its target T1, human GPR119. Briefly: GPR119 radioligand binding assay ([3H]Cmpd A, membranes of HEK 293FT cells over-expressing hGPR119). The conditions noted are these: competition with 3H-Cmpd A; Ki from IC50 by Cheng-Prusoff; one line per run. As for the experimental part: HEK 293FT cells (Invitrogen, Carlsbad, Calif.) were grown in a shake flask in 293Freestyle medium (Invitrogen) supplemented with 50 microg/mL neomycin and 10 mM HEPES (37 C, 8% carbon dioxide, shaking). The cells were centrifuged gently (approximately 500×g, 10 minutes) and the pellet resuspended in a mixture of Dulbecco's PBS(minus Mg++/−Ca++) supplemented with 18% fetal bovine serum (Sigma Aldrich) and P1 virus such that the multiplicity of infection (MOI) was 10 and the final cell density was 1.3×10^6/ml (total volume 2.5 liters). The cells were transferred to a 5 liter Wave Bioreactor Wavebag (Wave Technologies, MA) and incubated for 4 hours at 27 degrees Celsius (17 rocks/min, 7 degrees platform angle); at the end of the incubation period, an equal volume (2.5 liters) of 293Freestyle medium supplemented with 30 mM sodium butyrate (Sigma Aldrich) was added (final concentration=15 mM), and the cells were grown for 20 hours (37 degrees Celsius, 8% CO2 [0.2 liters/min}, 25 rocks/minute, 7 degrees platform angle). Cells were harvested via centrifugation (3,000×g, 10 minutes), washed once on DPBS (minus Ca++/Mg++), resuspended in 0.25M sucrose, 25 mM HEPES, 0.5 mM EDTA, pH 7.4 and frozen at −80 degrees Celsius.
The frozen cells were thawed on ice and centrifuged at 700×g (1400 rpm) for 10 minutes at 4 degrees Celsius. The cell pellet was resuspended in 20 ml phosphate-buffered saline, and centrifuged at 1400 rpm for 10 minutes. The cell pellet was then resuspended in homogenization buffer (10 mM HEPES (Gibco #15630), pH 7.5, 1 mM EDTA (BioSolutions, #BIO260-15), 1 mM EGTA (Sigma, #E-4378), 0.01 mg/ml benzamidine (Sigma #B 6506), 0.01 mg/ml bacitracin (Sigma #B 0125), 0.005 mg/ml leupeptin (Sigma #L 8511), 0.005 mg/ml aprotinin (Sigma #A 1153)) and incubated on ice for 10 minutes. Cells were then lysed with 15 gentle strokes of a tight-fitting glass Dounce homogenizer. The homogenate was centrifuged at 1000×g (2200 rpm) for 10 minutes at 4 degrees Celsius. The supernatant was transferred into fresh centrifuge tubes on ice. The cell pellet was resuspended in homogenization buffer, and centrifuged again at 1000×g (2200 rpm) for 10 minutes at 4 degrees Celsius after which the supernatant was removed and the pellet resuspended in homogenization buffer. This process was repeated a third time, after which the supernatants were combined, Benzonase (Novagen #71206) and MgCl2 (Fluka #63020) were added to final concentrations of 1 U/ml and 6 mM, respectively, and incubated on ice for one hour. The solution was then centrifuged at 25,000×g (15000 rpm) for 20 minutes at 4 degrees Celsius, the supernatant was discarded, and the pellet was resuspended in fresh homogenization buffer (minus Benzonase and MgCl2). After repeating the 25,000×g centrifugation step, the final membrane pellet was resuspended in homogenization buffer and frozen at −80 degrees Celsius. The protein concentration was determined using the Pierce BCA protein assay kit (Pierce reagents A #23223 and B #23224).
Test compounds were serially diluted in 100% DMSO (J. T. Baker #922401). 2 microL of each dilution was added to appropriate wells of a 96-well plate (each concentration in triplicate). Unlabeled Cmpd A, at a final concentration of 10 microM, was used to determine non-specific binding.
^3H-Cmpd A was diluted in binding buffer (50 mM Tris-HCl, pH 7.5, (Sigma #T7443), 10 mM MgCl2 (Fluka 63020), 1 mM EDTA (BioSolutions #BIO260-15), 0.15% bovine serum albumin (Sigma #A7511), 0.01 mg/mL benzamidine (Sigma #B 6506), 0.01 mg/mL bacitracin (Sigma #B 0125), 0.005 mg/mL leupeptin (Sigma #L 8511), 0.005 mg/mL aprotinin (Sigma #A 1153)) to a concentration of 60 nM, and 100 microL added to all wells of 96-well plate (Nalge Nunc #267245).
Membranes expressing GPR119 were thawed and diluted to a final concentration of 20 μg/100 microL per well in Binding Buffer, and 100 microL of diluted membranes were added to each well of 96-well plate. […]

Setting [4] is: hGPR119 HEK-CRE beta-lactamase cells, HTRF cAMP, 30 minutes, one line per run, read-out: Human cAMP Functional EC50.
The mark [5] stands for this setting: percent of maximal activity relative to standard GPR119 agonist (WO2005121121) at 10 μM, one line per run, read-out: Intrinsic Activity* (%) (cAMP).

“And” between values parts separate entries of the source, which are not always exact repeats. Equal entries are not always repeated.

`Cc1c(OC2CCN(C(=O)OC3(C)CC3)CC2)ncnc1N1Cc2cnn(C)c2C1` [Example 5, 1-Methylcyclopropyl 4-{[5-methyl-6-(1-methyl-4,6-dihydropyrrolo[3,4-c]pyrazol-5(1H)-yl)pyrimidin-4-yl]oxy}piperidine-1-carboxylate]: the EC50 (usually the concentration giving half of the maximal effect) in test [1] (setting [4]) amounted to 118 nM. For the same molecule, the Emax in test [1] (setting [5]) came to 82%.
In the case of `CC(C)OC(=O)N1CCC(Oc2cc(N3Cc4cnn(C)c4C3)ncn2)CC1` [Example 1, Isopropyl 4-{[6-(1-methyl-4,6-dihydropyrrolo[3,4-c]pyrazol-5(1H)-yl)pyrimidin-4-yl]oxy}piperidine-1-carboxylate], the EC50 was 9220 nM in test [2] (**the curve was extrapolated to 100% to calculate an EC50, read-out: Human B-lactamase Functional EC50 (nM), curve extrapolated to 100%); 3850 nM in test [2] (hGPR119 HEK293-CRE beta-lactamase cells, 16 hours incubation, one line per run, read-out: Human B-lactamase Functional EC50); 7500 nM in test [1] (**the curve was extrapolated to 100% to calculate an EC50, read-out: Human cAMP Functional EC50 (nM), curve extrapolated to 100%); greater than 10000 nM in test [1] (setting [4]). Besides, the Emax in test [2] (**the curve was extrapolated to 100% to calculate an EC50, read-out: Intrinsic Activity* (%) (B-lactamase), curve extrapolated to 100%) was 100%; in test [2] (percent of maximal activity relative to standard GPR119 agonist (WO2005121121) at 10 microM, one line per run, read-out: Intrinsic Activity* (%) (B-lactamase)), 116%; in test [1] (**the curve was extrapolated to 100% to calculate an EC50, read-out: Intrinsic Activity* (%) (cAMP), curve extrapolated to 100%) it was 100%.
With `Cc1c(O[C@H]2CCN(C(=O)OC(C)C)C[C@H]2F)ncnc1N1Cc2cnn(C)c2C1` (racemic) [Example 13, 1-Isopropyl (3,4-cis)-3-fluoro-4-{[5-methyl-6-(1-methyl-4,6-dihydropyrrolo[3,4-c]pyrazol-5(1H)-yl)pyrimidin-4-yl]oxy}piperidine-1-carboxylate], in test [1] (setting [4]), the EC50 stood at 18 nM. The Emax in test [1] (setting [5]) was found to be 36%.
As to `Cc1c(O[C@H]2[C@@H]3COC[C@H]2CN(C(=O)OC2(C)CC2)C3)ncnc1N1Cc2cnn(C)c2C1` [Example 10, 1-Methylcyclopropyyl (9-anti)-9-{[5-methyl-6-(1-methyl-4,6-dihydropyrrolo[3,4-c]pyrazol-5(1H)-yl)pyrimidin-4-yl]oxy}-3-oxa-7-azabicyclo[3.3.1]nonane-7-carboxylate], the affinity in test [3] corresponds to a Ki of 0.026 µM. In addition, the EC50 in test [1] (setting [4]) was 239 nM and 108 nM.
